This assay concerns Bifidobacterium bifidum ATCC 29521. The assay is described as follows: bifidogenic activity: growth test with bifidobacteria in combination with a growth test with E. coli. It is filed as cell-based. Particulars: growth of Bifidobacterium bifidum (50% Elliker broth, anaerobic, 37° C., 16 hours) relative to growth of E. coli K12 (3 g/l tryptic soy broth, 16 hours); desalted HPLC fractions from pepsin-treated human milk. As to the method: This object is achieved by peptides having the features of claim 1. […]
For each assay, cultures of E. coli K12 were freshly inoculated in tryptic soy broth (Sigma, Deisenhofen, Germany, order No. T8907) (Difco Manual, 10th ed., p. 1027). […] The photometric absorption of the inoculum was 0.05, measured at 500 nm. The growth of the bacteria under the influence of the peptides was also photometrically determined in an ELISA reader after 16 hours and manually determined by microscopy.
For each assay, cultures of Bifidobacterium bifidum ATCC 29521 were freshly inoculated in Elliker broth (Difco, Detroit, USA) (tryptone 20 g, yeast extract 5 g, gelatin 2.5 g, dextrose 5 g, lactose 5 g, saccharose 5 g, sodium chloride 4 g, sodium acetate 1.5 g, ascorbic acid 0.5 g). […] The photometric absorption of the inoculum was 0.05, measured at 550 nm. The growth of the bacteria under the influence of the peptides was also photometrically determined in an ELISA reader after 16 hours and manually determined by microscopy. […]

Turning to “GRRRRSVQWCAVSQPEATKCFQWQRNMRKVRGPPVSCIKRDSPICCIQA (GRRRSVQWCAVSQPEATKCFQWQRNMRKVRGPPVSCIKRDSPIQCIQA) [neutrophile lactoferrin-20-67, bifidogenic component of fraction 10, peptide isolated from pepsin-treated human milk]”, the bifidogenic activity entry is “bifidogenic”.
As to “YQRRPAIAINNPYVPRTYYANPAVVRPHAQIPQRQYLPNSHPPTVVRRPLPSF (YQRRPAIAINNPYVPRTYYANPAVVRPHAQIPQRQYLPNSHPPTVVRRPNLHPSF) [casein K-63-117, pure bifidogenic component of fraction 9, peptide isolated from pepsin-treated human milk]”, the bifidogenic activity entry is reported as “bifidogenic”.

For the origin of these results see patent publication US6849593B1, “Bifidogenic peptides” (Pharis Biotec GmbH, priority 1997, dated 2005).
